Target: T1, PI3Kδ (Homo sapiens, UniProt O00329)
T1 construct: purchased Invitrogen (US)
Assay: In vitro enzyme activity (ADP-Glo) against PI3Kδ
Type: biochemical
Settings: Table 2; ATP 50 μM, PIP2:PS 50 μM
Procedure: In vitro enzyme activity experiments were performed to determine the IC50 values of the compounds against PI3K family type I kinases (PI3Kα, PI3Kβ, PI3Kγ, PI3Kδ) and type II kinases (PIK3C2A, PIK3C2B). Protein kinases PI3Kα, PI3Kγ, PI3Kδ, PIK3C2A, and PIK3C2B were all purchased from Invitrogen (US); protein kinase PI3Kβ was purchased from sigma (US); the three substrates PIP2: PS, PI and PI: PS were purchased from Invitrogen (US).
Protein kinases diluted to a certain concentration, i.e., PI3Kα 5.4 μL (with a final concentration of 0.16 ng/μL), PI3Kβ 5.4 μL (with a final concentration of 6 ng/μL), PI3Kδ 5.4 μL (with a final concentration of 1 ng/μL), PI3Kγ 5.4 μL (with a final concentration of 5 ng/μL), PIK3C2A 5.4 μL (with a final concentration of 5 ng/μL), and PIK3C2B 5.4 μL (with a final concentration of 10 ng/μL) were respectively reacted with 1 μL of the serially diluted drug compounds for 1 hour at room temperature (final drug concentrations were 10 μM, 1 μM, 0.3 μM, 0.1 μM, 0.03 μM, 0.01 μM, 0.003 μM, and 0.001 μM, respectively).
To each reaction tube of the above PI3K family type I kinases, 6 μL of a mixture of ATP (Promega, US) and substrate PIP2:PS (final concentrations of ATP in the reaction systems of kinases PI3Kα, and PI3Kβ were 10 μM, and final concentrations of ATP in the reaction systems of kinases PI3Kδ, and PI3Kγ were 50 μM, and final concentrations of the substrate PIP2:PS were all 50 μM) was added, and reacted at 37° C. for 1 hour. The reaction buffer was 50 mM Hepes (pH 7.5) (Promega, USA), 3 mM MgCl2, 1 mM EGTA (Promega, US), 100 mM NaCl, 0.03% CHAPS (Promega, US).
5 μL of kinase solution after reaction was placed in a 384-well plate (Corning, US), and 5 μL of ADP-Glo™ reagent (Promega, US) was added thereto and reacted at room temperature for 40 minutes to stop the kinase reaction and exhaust the remaining ATP; 10 μL of kinase detection reagent was added to convert ADP into ATP, and coupled luciferase/luciferin reaction was utilized to detect the newly synthesized ATP. Envision was utilized for readout and plotting, and Graphpad IC50 value was calculated.

T1 sequence (O00329 whole entry): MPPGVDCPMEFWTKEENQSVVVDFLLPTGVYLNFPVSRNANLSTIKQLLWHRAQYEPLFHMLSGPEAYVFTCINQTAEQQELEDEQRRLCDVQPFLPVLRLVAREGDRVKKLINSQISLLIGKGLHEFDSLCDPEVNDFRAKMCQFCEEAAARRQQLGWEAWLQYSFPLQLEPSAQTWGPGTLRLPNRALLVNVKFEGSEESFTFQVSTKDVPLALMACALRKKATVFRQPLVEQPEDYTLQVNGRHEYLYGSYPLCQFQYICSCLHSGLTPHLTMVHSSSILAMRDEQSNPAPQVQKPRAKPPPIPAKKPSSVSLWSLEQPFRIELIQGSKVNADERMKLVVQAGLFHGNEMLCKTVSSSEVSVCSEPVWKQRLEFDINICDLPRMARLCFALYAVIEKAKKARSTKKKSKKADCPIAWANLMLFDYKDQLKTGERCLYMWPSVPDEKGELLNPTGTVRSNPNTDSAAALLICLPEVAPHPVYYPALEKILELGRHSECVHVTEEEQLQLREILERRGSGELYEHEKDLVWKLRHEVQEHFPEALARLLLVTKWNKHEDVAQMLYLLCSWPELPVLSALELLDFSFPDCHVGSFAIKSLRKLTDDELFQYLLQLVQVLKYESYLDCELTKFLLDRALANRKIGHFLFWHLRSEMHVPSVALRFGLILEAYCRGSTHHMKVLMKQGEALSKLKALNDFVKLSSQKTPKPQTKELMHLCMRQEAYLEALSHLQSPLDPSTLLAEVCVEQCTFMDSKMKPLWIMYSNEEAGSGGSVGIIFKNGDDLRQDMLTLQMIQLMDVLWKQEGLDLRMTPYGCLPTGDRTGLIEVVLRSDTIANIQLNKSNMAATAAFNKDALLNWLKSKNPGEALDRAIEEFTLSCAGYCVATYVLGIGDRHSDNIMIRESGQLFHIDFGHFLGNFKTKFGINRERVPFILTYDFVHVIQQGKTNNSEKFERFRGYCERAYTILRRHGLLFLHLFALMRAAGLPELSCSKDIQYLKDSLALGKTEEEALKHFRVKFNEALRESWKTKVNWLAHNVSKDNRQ
T1 sequence (P27986 whole entry partner): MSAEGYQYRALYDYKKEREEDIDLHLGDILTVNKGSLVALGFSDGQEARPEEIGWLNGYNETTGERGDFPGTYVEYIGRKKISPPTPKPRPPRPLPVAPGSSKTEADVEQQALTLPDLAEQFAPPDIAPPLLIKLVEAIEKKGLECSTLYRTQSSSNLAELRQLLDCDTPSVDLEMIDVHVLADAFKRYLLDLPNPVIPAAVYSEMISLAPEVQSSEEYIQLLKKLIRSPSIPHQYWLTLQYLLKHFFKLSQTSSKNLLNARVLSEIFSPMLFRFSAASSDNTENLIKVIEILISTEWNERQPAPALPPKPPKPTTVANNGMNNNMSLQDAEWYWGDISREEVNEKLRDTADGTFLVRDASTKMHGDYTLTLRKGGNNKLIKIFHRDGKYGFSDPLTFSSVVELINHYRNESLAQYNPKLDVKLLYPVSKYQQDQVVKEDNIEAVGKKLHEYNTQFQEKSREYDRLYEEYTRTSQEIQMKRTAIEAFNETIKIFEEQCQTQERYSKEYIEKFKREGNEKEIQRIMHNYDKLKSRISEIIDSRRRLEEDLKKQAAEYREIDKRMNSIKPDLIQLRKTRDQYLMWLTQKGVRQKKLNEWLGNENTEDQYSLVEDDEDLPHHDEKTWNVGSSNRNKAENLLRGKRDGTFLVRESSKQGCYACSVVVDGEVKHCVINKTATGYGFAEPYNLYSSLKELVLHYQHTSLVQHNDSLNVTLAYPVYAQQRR

COc1ccc(-c2nn(Cc3nc4cccc(F)c4c(=O)n3C3CCC3)c3ncnc(N)c23)cc1F [Compound 7, 2-((4-amino-3-(3-fluoro-4-methoxyphenyl)-1H-pyrazolo [3,4-d]pyrimidin-1-yl)methyl)-3-cyclobutyl-5-fluoroquinazolin-4(3H)-one]
IC50: 0.0999 µM

CC(c1nc2cccc(F)c2c(=O)n1C1CCCC1)n1nc(-c2cccc(F)c2)c2c(N)ncnc21 (stereo not drawn) [Compound 12, 2-(1-(4-amino-3-(3-fluorophenyl)-1H-pyrazolo [3,4-d]pyrimidin-1-yl)ethyl)-3-cyclopentyl-5-fluoroquinazolin-4(3H)-one]
IC50: 0.082 µM

CC(C)c1ccc(-c2nn(C(C)c3nc4cccc(F)c4c(=O)n3C3CCCC3)c3ncnc(N)c23)cc1 (stereo not drawn) [Compound 24, 2-(1-(4-amino-3-(4-isopropylphenyl)-1H-pyrazolo [3,4-d]pyrimidin-1-yl)ethyl)-3-cyclopentyl-5-fluoroquinazolin-4(3H)-one]
IC50: 0.0215 µM

Cc1ccc(-c2nn(C(C)c3nc4cccc(F)c4c(=O)n3C3CCCC3)c3ncnc(N)c23)cc1F (stereo not drawn) [Compound 25, 2-(1-(4-amino-3-(3-fluoro-4-methylphenyl)-1H-pyrazolo [3,4-d]pyrimidin-1-yl)ethyl)-3-cyclopentyl-5-fluoroquinazolin-4(3H)-one]
IC50: 0.0175 µM

CC(c1nc2cccc(F)c2c(=O)n1C1CCCC1)n1nc(-c2cnc3ccccc3c2)c2c(N)ncnc21 (stereo not drawn) [Compound 26, 2-(1-(4-amino-3-(quinolin-3-yl)-1H-pyrazolo [3,4-d]pyrimidin-1-yl)ethyl)-3-cyclopentyl-5-fluoroquinazolin-4(3H)-one]
IC50: 0.0557 µM

CC(C)c1ccc(-c2nn(C(C)c3nc4cccc(F)c4c(=O)n3C3CCC3)c3ncnc(N)c23)cc1 (stereo not drawn) [Compound 28, 2-(1-(4-amino-3-(4-isopropylphenyl)-1H-pyrazolo [3,4-d]pyrimidin-1-yl)ethyl)-3-cyclobutyl-5-fluoroquinazolin-4(3H)-one]
IC50: 0.0833 µM

COc1ccc(-c2nn(C(C)c3nc4c(Cl)cccc4c(=O)n3C3CCC3)c3ncnc(N)c23)cc1F (stereo not drawn) [Compound 29, 2-(1-(4-amino-3-(3-fluoro-4-methoxyphenyl)-1H-pyrazolo [3,4-d]pyrimidin-1-yl)ethyl)-8-chloro-3-cyclobutylquinazolin-4(3H)-one]
IC50: 0.0773 µM

COc1ccc(-c2nn(C(C)c3nc4cccc(F)c4c(=O)n3C3CCC3)c3ncnc(N)c23)cc1C (stereo not drawn) [Compound 34, 2-(1-(4-amino-3-(4-methoxy-3-methylphenyl)-1H-pyrazolo [3,4-d]pyrimidin-1-yl)ethyl)-3-cyclobutyl-5-fluoroquinazolin-4(3H)-one]
IC50: 0.0418 µM

CC(c1nc2cccc(F)c2c(=O)n1C1CCC1)n1nc(-c2ccc3c(c2)OCO3)c2c(N)ncnc21 (stereo not drawn) [Compound 35, 2-(1-(4-amino-3-(benzo[d][1,3]dioxol-5-yl)-1H-pyrazolo [3,4-d]pyrimidin-1-yl)ethyl)-3-cyclobutyl-5-fluoroquinazolin-4(3H)-one]
IC50: 0.0262 µM

COc1ccc(-c2nn(C(C)c3nc4cccc(F)c4c(=O)n3C3CCCC3)c3ncnc(N)c23)cc1C (stereo not drawn) [Compound 36, 2-(1-(4-amino-3-(4-methoxy-3-methylphenyl)-1H-pyrazolo [3,4-d]pyrimidin-1-yl)ethyl)-3-cyclopentyl-5-fluoroquinazolin-4(3H)-one]
IC50: 0.0162 µM

COc1ccc(-c2nn(C(C)c3nc4ccccc4c(=O)n3C3CCC3)c3ncnc(N)c23)cc1C (stereo not drawn) [Compound 39, 2-(1-(4-amino-3-(4-methoxy-3-methylphenyl)-1H-pyrazolo [3,4-d]pyrimidin-1-yl)ethyl)-3-cyclobutylquinazolin-4(3H)-one]
IC50: 0.0235 µM

CCC(c1nc2cccc(F)c2c(=O)n1C1CC1)n1nc(-c2ccc(OC)cc2)c2c(N)ncnc21 (stereo not drawn) [Compound 40, 2-(1-(4-amino-3-(4-methoxyphenyl)-1H-pyrazolo [3,4-d]pyrimidin-1-yl)propyl)-3-cyclopropyl-5-fluoroquinazolin-4(3H)-one]
IC50: 0.0289 µM

— patent US12221448B2, “Selective PI3Kδ inhibitor and use thereof” (TARAPEUTICS SCIENCE INC., priority 2018, dated 2025)
